Measurements published in US8871767B2, “2-arylimidazo[1,2-B]pyridazine, 2-phenylimidazo[1,2-A]pyridine, and 2-phenylimidazo[1,2-A]pyrazine derivatives” (Hengrui (USA) Ltd., priority 2010, dated 2014).
Where two headings read alike, the source gives them in different places.

Experiments:
[1] = test system: Hedgehog pathway activation on 10T1/2/Smo#3 cells (C3H10T1/2 cells transfected with human Smoothened receptor); assay: Hedgehog pathway activation on 10T1/2/Smo#3 cells measured by ALP activity; assay type: cell-based; conditions: Mus musculus, C3H 10T1/2, 10T1/2/Smo#3 cells
In short: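 Inhibition of alkaline phosphatase induction, read fluorometrically from 4-methylumbelliferyl phosphate conversion, gave IC50 values; CellTiter-Blue tracked viability in parallel. Cells were the human Smo-transfected 10T1/2/Smo#3 pool, stimulated by 10-20% hShh conditioned medium or the Smo agonist SAG (500 nM).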

[2] = test system: Hedgehog pathway activation (GLi-luciferase reporter) in Shh Light II reporter cells; assay: Hedgehog pathway activation on Shh Light II reporter cells measured by luciferase activity; assay type: cell-based; conditions: Mus musculus, Shh Light II
In short: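 Shh Light II reporter cells carrying a hedgehog-responsive GLi-luciferase reporter were stimulated either with 500 nM SAG, a direct Smoothened agonist, or with conditioned media containing human Sonic Hedgehog (hShh). Test compounds were evaluated for blocking this pathway activation, quantified by luciferase activity. Cell viability was monitored in parallel with the Celltiter-Blue® assay.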

[3] = hShh activation, ALP activity, read-out: 10T1/2/Smo#3 ALP activity (hShh Activation)
[4] = SAG activation (500 nM SAG), read-out: Shh Light II luciferase activity (SAG activation)
[5] = hShh activation, read-out: Shh Light II luciferase activity (hShh activation)
[6] = measured by ALP activity, read-out: ALP (IC50, inhibition of Hedgehog pathway activation)
[7] = hShh activation, read-out: Shh (IC50, inhibition of Hedgehog pathway activation)

| SMILES | IC50 [1, 3] | IC50 [2, 4] | IC50 [2, 5] | IC50 [1, 6] | IC50 [2, 7] |
| --- | --- | --- | --- | --- | --- |
| CCc1ccc(-c2cn3nc(-c4cccnc4C(F)(F)F)ccc3n2)cc1NC(=O)C1(C)CC1 [Example 633] | < 300 nM | < 300 nM | < 300 nM | – | – |
| CCC(C)(C)C(=O)Nc1cc(-c2cn3nc(-c4cccnc4C(F)(F)F)ccc3n2)ccc1Cl [Example 664, N-(2-chloro-5-(6-(2-(trifluoromethyl)pyridin-3-yl)imidazo[1,2-b]pyridazin-2-yl)phenyl)-2,2-dimethylbutanamide] | – | – | – | 105 nM | 24 nM |
| CCc1ccc(-c2cn3nc(-c4cccnc4C(F)(F)F)ccc3n2)cc1NC(=O)N(CC)CC [Example 693, 1,1-diethyl-3-(2-ethyl-5-(6-(2-(trifluoromethyl)pyridin-3-yl)imidazo[1,2-b]pyridazin-2-yl)phenyl)urea] | – | – | – | 186 nM | 192 nM |
| Cc1ccc(-c2cn3ncccc3n2)cc1NC(=O)CC(C)(C)C [Example 108, N-(5-(imidazo[1,2-b]pyridazin-2-yl)-2-methylphenyl)-3,3-dimethylbutanamide] | – | – | – | 5230 nM | 2470 nM |
| CCc1ccc(-c2cn3nc(-c4cccnc4C(F)(F)F)ccc3n2)cc1NC(=O)N1CCCC1 [Example 694, N-(2-ethyl-5-(6-(2-(trifluoromethyl)pyridin-3-yl)imidazo[1,2-b]pyridazin-2-yl)phenyl)pyrrolidine-1-carboxamide] | – | – | – | 174 nM | 339 nM |
| Cc1ccc(-c2cn3nc(N4CC[C@@H](O)C4)ccc3n2)cc1NC(=O)C(C)(C)C [Example 347, (R)-N-(5-(6-(3-hydroxypyrrolidin-1-yl)imidazo[1,2-b]pyridazin-2-yl)-2-methylphenyl)pivalamide] | – | – | – | 22 nM | 46 nM |
| Cc1c(-c2cccc(NC(=O)C3CCCCC3)c2)nc2ncccn12 [Example 92, N-(3-(3-methylimidazo[1,2-a]pyrimidin-2-yl)phenyl)cyclohexanecarboxamide] | 3000 to 30000 nM | 3000 to 30000 nM | 3000 to 30000 nM | – | – |
| Cc1c(-c2ccccc2)nc2ccc(N3CCN(Cc4ccc(F)cc4)CC3)nn12 [Example 134, 6-(4-(4-fluorobenzyl)piperazin-1-yl)-3-methyl-2-phenylimidazo[1,2-b]pyridazine] | < 300 nM | 300 to 3000 nM | 300 to 3000 nM | 232 nM | 926 nM |
| Cc1ccc(-c2cn3nc(-c4cc(C(N)=NO)ccc4C(F)(F)F)ccc3n2)cc1NC(=O)C(C)(C)C [compound 601] | – | – | – | 40 nM | 66 nM |
| Cc1ccc(-c2cn3nc(-c4csc(N5CCOCC5)n4)ccc3n2)cc1NC(=O)C(C)(C)C [Example 448, N-(2-methyl-5-(6-(2-morpholinothiazol-4-yl)imidazo[1,2-b]pyridazin-2-yl)phenyl)pivalamide] | – | – | – | 643 nM | 1280 nM |
| CC(C)(C)C(=O)Nc1cc(-c2cn3nc(-c4cccnc4C(F)(F)F)ccc3n2)c(F)cc1F [Example 652, N-(2,4-difluoro-5-(6-(2-(trifluoromethyl)pyridin-3-yl)imidazo[1,2-b]pyridazin-2-yl)phenyl)pivalamide] | – | – | – | 36 nM | 34 nM |
| Cc1ccc(-c2nc3ccc(-c4cccnc4C(F)(F)F)nn3c2C)cc1NC(=O)C(C)(C)C [Example 353, N-(2-methyl-5-(3-methyl-6-(2-(trifluoromethyl)pyridin-3-yl)imidazo[1,2-b]pyridazin-2-yl)phenyl)pivalamide] | – | – | – | 56 nM | 74 nM |
| COc1ccc2nc(-c3ccc(OC(F)(F)F)c(NC(=O)C(C)(C)C)c3)cn2n1 [Example 247, N-(5-(6-methoxyimidazo[1,2-b]pyridazin-2-yl)-2-(trifluoromethoxy)phenyl)pivalamide] | < 300 nM | < 300 nM | < 300 nM | 1860 nM | – |
| CCN[C@H]1CCN(c2ccc3nc(-c4ccc(C)c(NC(=O)C(C)(C)C)c4)cn3n2)C1 [Example 394, (S)-N-(5-(6-(3-(ethylamino)pyrrolidin-1-yl)imidazo[1,2-b]pyridazin-2-yl)-2-methylphenyl)pivalamide] | – | – | – | 189 nM | 41 nM |
| CCOC(=O)C=Cc1cccc(C(=O)Nc2ccc3nc(-c4ccc(C)c(NC(=O)C(C)(C)C)c4)cn3n2)c1 [compound 602] | – | – | – | 314 nM | 155 nM |
| CCOC(=O)CCCOc1ccc(-c2ccc3nc(-c4ccc(C)c(NC(=O)C(C)(C)C)c4)cn3n2)c(C(F)(F)F)c1 [Example 428, ethyl 4-(4-(2-(4-methyl-3-pivalamidophenyl)imidazo[1,2-b]pyridazin-6-yl)-3-(trifluoromethyl)phenoxy)butanoate] | – | – | – | 734 nM | 78 nM |
| CC(=O)NC1CCN(c2ccc3nc(-c4ccc(C)c(NC(=O)C(C)(C)C)c4)cn3n2)C1 (stereo not shown) [Example 362, N-(5-(6-(3-acetamidopyrrolidin-1-yl)imidazo[1,2-b]pyridazin-2-yl)-2-methylphenyl)pivalamide] | – | – | – | 155 nM | 104 nM |
| CC(C)(C)C(=O)Nc1cc(-c2cn3nc(N4CCC5(CC4)OCCO5)ccc3n2)ccc1C(F)(F)F [Example 371, N-(5-(6-(1,4-dioxa-8-azaspiro[4.5]decan-8-yl)imidazo[1,2-b]pyridazin-2-yl)-2-(trifluoromethyl)phenyl)pivalamide] | – | – | – | 296 nM | 138 nM |
| Cc1ccc(-c2cn3nc(-c4ccc(/C(N)=N/O)cc4C(F)(F)F)ccc3n2)cc1NC(=O)C(C)(C)C [compound 511, N-(5-(6-(4-(N′-hydroxycarbamimidoyl)-2-(trifluoromethyl)phenyl)imidazo[1,2-b]pyridazin-2-yl)-2-methylphenyl)pivalamide] | < 300 nM | < 300 nM | < 300 nM | 2 nM | 10 nM |
| CC(C)(C)C(=O)Nc1cc(-c2cn3nc(N4CCC[C@H](O)C4)ccc3n2)ccc1C(F)(F)F [Example 358, (S)-N-(5-(6-(3-hydroxypiperidin-1-yl)imidazo[1,2-b]pyridazin-2-yl)-2-(trifluoromethyl)phenyl)pivalamide] | – | – | – | 387 nM | 225 nM |
| CC(C)(C)C(=O)Nc1cc(-c2cn3nc(NCCO)ccc3n2)ccc1C(F)(F)F [Example 304, N-(5-(6-(2-hydroxyethylamino)imidazo[1,2-b]pyridazin-2-yl)-2-(trifluoromethyl)phenyl)pivalamide] | – | – | – | 393 nM | 559 nM |
| O=C(Nc1cc(-c2cn3nc(-c4cccnc4C(F)(F)F)ccc3n2)ccc1Cl)C1CCCCC1 [Example 670, N-(2-chloro-5-(6-(2-(trifluoromethyl)pyridin-3-yl)imidazo[1,2-b]pyridazin-2-yl)phenyl)cyclohexanecarboxamide] | – | – | – | 620 nM | 61 nM |
| Cc1ccc(-c2cn3nc(-c4ccccc4Cl)ccc3n2)cc1NC(=O)C(C)(C)C [Example 258, N-(5-(6-(2-chlorophenyl)imidazo[1,2-b]pyridazin-2-yl)-2-methylphenyl)pivalamide] | – | – | – | 105 nM | 129 nM |
| CCOc1ccc2nc(-c3ccc(C(F)(F)F)c(NC(=O)c4ccccc4F)c3)cn2n1 [Example 192, N-(5-(6-ethoxyimidazo[1,2-b]pyridazin-2-yl)-2-(trifluoromethyl)phenyl)-2-fluorobenzamide] | – | – | – | 4760 nM | 1580 nM |
| CCOc1ccc2nc(-c3ccc(C(F)(F)F)c(NC(=O)Cc4ccccc4)c3)cn2n1 [Example 194, N-(5-(6-ethoxyimidazo[1,2-b]pyridazin-2-yl)-2-(trifluoromethyl)phenyl)-2-phenylacetamide] | – | – | – | > 10000 nM | 1750 nM |
| CCOC(=O)CCCOc1cccc(-c2ccc3nc(-c4ccc(C)c(NC(=O)C(C)(C)C)c4)cn3n2)c1C(F)(F)F [Example 426, ethyl 4-(3-(2-(4-methyl-3-pivalamidophenyl)imidazo[1,2-b]pyridazin-6-yl)-2-(trifluoromethyl)phenoxy)butanoate] | – | – | – | 707 nM | 170 nM |
| CC(C)(C)C(=O)Nc1cc(-c2cn3cc(-c4ccccc4F)ncc3n2)ccc1C(F)(F)F [Example 86, N-(5-(6-(2-fluorophenyl)imidazo[1,2-a]pyrazin-2-yl)-2-(trifluoromethyl)phenyl)pivalamide] | < 300 nM | 300 to 3000 nM | < 300 nM | 547 nM | 530 nM |
| CC(C)(C)CC(=O)Nc1cc(-c2cn3nc(-c4cccnc4C(F)(F)F)ccc3n2)ccc1F [Example 679, N-(2-fluoro-5-(6-(2-(trifluoromethyl)pyridin-3-yl)imidazo[1,2-b]pyridazin-2-yl)phenyl)-3,3-dimethylbutanamide] | – | – | – | 658 nM | 254 nM |
| COc1ccc2nc(-c3cc(NC(=O)C(C)(C)C)c(C)cc3Cl)cn2n1 [Example 132, N-(4-chloro-5-(6-methoxyimidazo[1,2-b]pyridazin-2-yl)-2-methylphenyl)pivalamide] | – | – | – | > 10000 nM | 1490 nM |
| CCOC(=O)CCCOc1ccc(-c2ccc3nc(-c4ccc(C)c(NC(=O)C(C)(C)C)c4)cn3n2)c(C(F)(F)F)n1 [Example 432, ethyl 4-(5-(2-(4-methyl-3-pivalamidophenyl)imidazo[1,2-b]pyridazin-6-yl)-6-(trifluoromethyl)pyridin-2-yloxy)butanoate] | – | – | – | 675 nM | 121 nM |
